Here are results for two compounds from patent US11696898B2, “Halogenated ether compounds and methods of inducing anesthesia” (The Regents of the University of California, priority 2014, dated 2023).

Entries after “also recorded” stand apart in the source; their conditions may differ. Where two headings read alike, the source gives them in different places.

In assay [1] the test system is NMDA receptors. Kind of assay: NMDA receptor modulation at a saturated aqueous phase concentration. It counts as cell-based.
Assay [2] relates to mice. Description: General anesthesia in mice (MAC for loss of righting reflex). The following applies: inhaled, closed microcircuit. The assay is classed as in vivo. The method, then:
In a method to measure the minimum alveolar concentration (MAC) for Loss Of Righting Reflex (MACLORR), for assessing the performance of a compound as a general anesthetic, mice were placed in a 3.5 cm diameter, 14.5 cm long acrylic cylinder connected on either end via unidirectional valves to a closed microcircuit containing a carbon dioxide absorbent vessel, latex balloon breathing bag, sampling port, and 100 mL glass syringe-driven piston. […] The procedures for measuring MACLORR and MAC, as well as general methods for measuring agent concentrations by gas chromatography, have been described in Deady J E, Koblin D D, Eger E I, 2nd, Heavner J E, D'Aoust B: Anesthetic potencies and the unitary theory of narcosis. Anesth Analg 1981; 60: 380-4; Brosnan R J, Thiesen R: Increased NMDA receptor inhibition at an increased Sevoflurane MAC. BMC Anesthesiol 2012; 12: 9; and Brosnan R J: GABA(A) receptor antagonism increases NMDA receptor inhibition by isoflurane at a minimum alveolar concentration. Vet Anaesth Analg 2011; 38: 231-9, the disclosures of which are incorporated by reference in their entireties.

With `FC(OC(F)(F)F)C(F)(F)Br` (stereo not drawn) [Ethane, 1-bromo-1,1,2-trifluoro-2-(trifluoromethoxy)-], the “modulation/inhibition of NMDA receptors” value in assay [1] (listed as 1-bromo-1,1,2-trifluoro-2-(trifluoromethoxy)-ethane) is “devoid of NMDA receptor effects; also recorded: does not modulate NMDA receptors”. Also, the “general anesthesia in mice” value in assay [2] is listed as “produced general anesthesia”.
Take `COC(F)(C(F)(F)F)C(F)(F)F` [Propane, 1,1,1,2,3,3,3-heptafluoro-2-methoxy-]: the “modulation/inhibition of NMDA receptors” value in assay [1] is recorded as “inhibits NMDA receptors”.
